Test results: patent US20060079512A1, “Dibenzodiazepinone analogues, processes for their production and their use as pharmaceuticals” (Ecopia BioSciences, Inc., priority 2003, published 2006)
Entries after “also recorded” stand apart in the source; their conditions may differ.

What was measured:
[1] = test system: PC-3 (prostate adenocarcinoma); assay: In vitro cytotoxic activity (GI50), method (a), propidium iodide; assay type: cell-based; settings: method (a), 96 hours; read-out: PC-3 (GI50 μM)
Protocol: (§1) Compounds were dissolved at 10 mM in DMSO. Dilution in vehicle to concentrations of 30, 10, 3, 1 and 0.3 μM were prepared immediately before assays. Depending on the cell line's growth characteristics, 4000-10000 cells were plated in two 96-wells pates (day 0) and incubated for 16 hours. The following day, propidium iodide was added to one of the two plates and fluorescence measured (Tz). Test compounds were added to the second plate, as well as vehicle control, and cells further incubated for 96 hours. Each compound was tested at each concentration and in triplicates. The equivalent cell number was determined after adding propidium iodide by measuring the signal by fluorescence (C for control).

SF268 (CNS) = assay: as above; assay type: cell-based; settings: Homo sapiens, SF-268; method (a), 96 hours; read-out: SF-268 (GI50 μM)
Protocol: as §1

[2] = test system: HT-29 (colorectal carcinoma); assay: as above; assay type: cell-based; settings: Homo sapiens, HT-29; method (a), 96 hours; read-out: HT-29 (GI50 μM)
Protocol: as §1

[3] = test system: MDA-MB-231 (mammary gland adenocarcinoma); assay: as above; assay type: cell-based; settings: Homo sapiens, MDA-MB-231; method (a), 96 hours; read-out: MDA-MB-231 (GI50 μM)
Protocol: as §1

[4] = test system: HT-29, SF-268, PC-3, MDA-MB-231; assay: Average GI50 over the four cell lines, method (a); assay type: cell-based; settings: method (a); values > 30 not considered; read-out: Average (GI50 μM)
Protocol: as §1

C6 glioblastoma [5] = assay: In vivo efficacy in glioma model, second series (treatment started at day 10); design: species or system Mus musculus nude mice; settings: for Tumor volume (mm^3) (mean ± SEM): Q1 × 5; for % Inhibition: Q1 × 5, vs saline
Protocol: (§2) Animal experiments were performed according to ethical guidelines of animal experimentation (Charte du comité d'éthique du CNRS, juillet 2003) and the English guidelines for the welfare of animals in experimental neoplasia (WORKMAN, P., […], P., BALKWILL, F., et al. (1998). United Kingdom Coordinating Committee on Cancer Research (UKCCCR) Guidelines for the welfare of animals in experimental neoplasia (Second Edition, July 1997; British Journal of Cancer, 77:1-10). Any dead or apparently sick mice were promptly removed and replaced with healthy mice. Sick mice were euthanized upon removal from the cage. Animals were maintained in rooms under controlled conditions of temperature (23±2° C.), humidity (45±5%), photoperiodicity (12 hrs light/12 hrs dark) and air exchange. Animals were housed in polycarbonate cages (5/single cage) that were equipped to provide food and water. Animal bedding consisted of sterile wood shavings that were replaced every other day. Food was provided ad libitum, being placed in the metal lid on the top of the cage. Autoclaved tap water was provided ad libitum. Water bottles were equipped with rubber stoppers and sipper tubes. Water bottles were cleaned, sterilized and replaced once a week. Two different numbers engraved on two earrings identified the animals. Each cage was labeled with a specific code.
(§3) Tumor Cell Line: The C6 cell line was cloned from a rat glial tumor induced by N-nitrosomethyurea (NMU) according to Premont et al. (Premont J, Benda P, Jard S., [3H] norepinephrine binding by rat glial cells in culture. Lack of correlation between binding and adenylate cyclase activation. Biochim Biophys Acta. 1975 Feb. 13;381(2):368-76.) after series of alternate culture and animal passages. Cells were grown as adherent monolayers at 37° C. in a humidified atmosphere (5% CO2, 95% air). The culture medium was DMEM supplemented with 2 mM L-glutamine and 10% fetal bovine serum. For experimental use, tumor cells were detached from the culture flask by a 10 min treatment with trypsin-versen. The cells were counted in a hemocytometer and their viability assessed by 0.25% trypan blue exclusion.
(§4) Preparation of the Test Article: For the test article, the following procedure was followed for reconstitution (performed immediately preceding injection). The vehicle consisted of a mixture of benzyl alcohol (1.5%), ethanol (8.5%), propylene glycol (27%), PEG 400 (27%), dimethylacetamide (6%) and water (30%). The vehicle solution was first vortexed in order to obtain a homogeneous liquid. 0.6 mL of the vortexed vehicle solution was added to each vial containing the test article (Compound 1). Vials were mixed thoroughly by vortexing for 1 minute and inverted and shaken vigorously. Vials were mixed again prior to injection into each animal.
(§5) Animal Inoculation with tumor cells: Experiment started at day 0 (D0). On D0, mice received a superficial intramuscular injection of C6 tumor cells (5×10^5 cells) in 0.1 mL of DMEM complete medium into the upper right posterior leg.
In a second series of experiments, treatment started at day 10 following inoculation of C6 cells when tumors became palpable (around 100 to 200 mm^3). Treatment was repeated daily for 5 consecutive days. On the day of the treatment, each mouse was slowly injected with 100 μL of Compound 1 by i.p. route. Mice of group 1 were treated daily with saline isosmotic solution. Mice of group 2 were treated daily with the vehicle solution. Mice of group 3 were treated daily with 20 mg/kg of Compound 1. Mice of group 4 were treated daily with 30 mg/kg of Compound 1. Mice were treated until the tumor volume of the saline-treated control mice (group 1) reached around 4 cm^3. Tumor volume was measured every second day until the end of the treatment using callipers. […] An asterisk in the P value column of Table 20 indicates a statistically significant value, while “ns” signifies not significant.

C6 glioblastoma [6] = assay: In vivo efficacy in glioma model, first series (treatment started 24 hrs after inoculation); design: species or system Mus musculus nude mice
Protocol: The aim of this study was to test whether Compound 1 administered by the i.p. route prevents or delays tumor growth in C6 glioblastoma cell-bearing mice, and to determine an effective dosage regimen.
as §2, §3, §4, §5
In a first series of experiments, treatment started 24 hrs following inoculation of C6 cells. On the day of the treatment, each mouse was slowly injected with 100 μL of test or control articles by the i.p. route. For all groups, treatment was performed until the tumor volume of the saline-treated mice (group 1) reached approximately 3 cm^3 (around day 16). Mice of group 1 were treated daily with a saline isosmotic solution for 16 days. Mice of group 2 were treated daily with the vehicle solution for 16 days. Mice of group 3 were treated daily with 10 mg/kg of Compound 1 for 16 days. Mice of group 4 were treated every two days with 30 mg/kg of Compound 1 and received 8 treatments. […]

`CC(C)=CCC/C(C)=C/CC/C(C)=C/CN1C(=O)c2cccc(O)c2Nc2c(O)cc(O)cc21` [Compound 1, 10-farnesyl-4,6,8-trihydroxy-5,10-dihydrodibenzo[b,e][1,4]diazepin-11-one] showed a GI50 [1] of 1.95 µM, a GI50 (SF268 (CNS)) of 1.96 µM and a GI50 [2] of 11.2 µM. For the same compound, the GI50 [3] was 1.79 µM, the GI50 [4] was 4.23 µM and the “Tumor volume (mm^3) (mean ± SEM)” value (C6 glioblastoma [5]; 20 mg/kg i.p.) was 1,721.5 ± 374.79 mm^3. The “% Inhibition” value (C6 glioblastoma [5]; 20 mg/kg i.p.) was 60.5%, the “Tumor volume (mm^3) (mean ± SEM)” value (C6 glioblastoma [5]; 30 mg/kg i.p.) was 1,131.6 ± 525.21 mm^3 and the “% Inhibition” value (C6 glioblastoma [5]; 30 mg/kg i.p.) was 74.1%. For the same compound, the “Histological analysis of tumor sections” value (C6 glioblastoma [5]; 20-30 mg/kg) was “cell density of tumor treated with Compound 1 appears decreased; also recorded: cell density was decreased and the nuclei of remaining tumor cells appeared larger and pycnotic”, the “mean value of the tumor volume of all treated groups” value (C6 glioblastoma [5]; 20-30 mg/kg i.p., compared to the saline group) was “significantly reduced” and the “Tumor volume (mm^3) (mean ± SEM)” value (C6 glioblastoma [6]; 10 mg/kg i.p., Q1 × 16) was 1,220.4 ± 283.46 mm^3. The “% Inhibition” value (C6 glioblastoma [6]; 10 mg/kg i.p., Q1 × 16, vs saline) was 59.4%, the “Tumor volume (mm^3) (mean ± SEM)” value (C6 glioblastoma [6]; 30 mg/kg i.p., Q2 × 8) was 1,236.9 ± 233.99 mm^3 and the “% Inhibition” value (C6 glioblastoma [6]; 30 mg/kg i.p., Q2 × 8, vs saline) was 58.8%. For the same compound, the “Tumor volume (mm^3) (mean ± SEM)” value (C6 glioblastoma [6]; 30 mg/kg i.p., Q3 × 6) was 1,184.1 ± 221.45 mm^3, the “% Inhibition” value (C6 glioblastoma [6]; 30 mg/kg i.p., Q3 × 6, vs saline) was 60.6% and the “mean value of the tumor volume of all treated groups” value (C6 glioblastoma [6]; 10-30 mg/kg i.p., compared to the saline group) was “significantly reduced”.

In the case of `CC(C)=CCC/C(C)=C/CC/C(C)=C/CN1C(=O)c2cccc(O)c2N(C)c2c(O)cc(O)cc21` [Compound 2, 10-farnesyl-4,6,8-trihydroxy-5-methyl-5,10-dihydro-dibenzo[b,e][1,4]diazepin-11-one], the NOAEL (in vivo; CD-1 nu/nu, mouse, in vivo, ip) was 30 mg/kg, the NOAEL (in vivo; CD-1 nu/nu, mouse, in vivo, iv) was 75 mg/kg and the MTD (in vivo; CD-1 nu/nu, mouse, in vivo, ip, acute) was no less than 50 mg/kg. For the same compound, the weight losses (in vivo; for several days post-injection) was “about 7%”.
